Source: patent US20140161720A1, “TREATMENT OF ANGIOGENIC- OR VASCULAR-ASSOCIATED DISEASES” (THE GENERAL HOSPITAL CORPORATION, priority 2011, published 2014)
“Also recorded” adds a separate entry of the source.

What was measured:
MDA-MB-231 cells = test: High-throughput cell adhesion screen (cells remaining attached); type: cell-based, human; details: FIG. 1C
Protocol: A cell-based readout system was used for compound selection. For the cell-based screening, an optimal cell density of 10,000 breast cancer MDA-MB-231 cells/well was selected to produce the most prominent signal. The plated cells were incubated with each library compound, washed with PBS, and the Cell Titer-Glo (Promega) reagent was used to detect the number of cells remaining attached in each well. This ATP-based detection has a linear relationship between the luminescent signal and the number of cells per well. Of the 50,000 compounds screened, 86 library compounds (0.172% of screened compounds) were selected at 1.67 μM concentration for the second screening step. […] As a further test of toxicity, DAL was injected intraperitoneally at 100 mg/kg in SCID mice and signs of toxicity including cachexia, ruffled fur, diarrhea, anorexia, skin ulceration, and toxic death were monitored.
A screening strategy was developed to identify potential agents that target adhesion of endothelial cells or cancer cells to their substrate. […] The initial screening step quantified the number of cells remaining attached to their wells following incubation with each compound and subsequent washing steps. […] The agents that affect cell adhesion can be monitored through remodeling of actin filaments. […] Changes in actin assembly and cell shape after treatment with 12 compounds were determined. […]

[1] = test system: Tg(fli1:EGFP)^y1 zebrafish embryos; test: Vascular development in zebrafish embryos; type: in vivo
Protocol: Zebrafish were raised in accordance with the established protocols (19-20). The age of embryos is indicated by the hours after fertilization and days after fertilization for all experimental data shown herein. For the screening study, zebrafish embryos were incubated with the selected compounds at a concentration of 5-10 μM. Treated embryos were then examined under a 100× PlanNeofluor objective mounted on a Nikon TE-200 epifluorescence microscope. Images of embryos bearing GFP-positive cells were captured with a Zeiss stereomicroscope.
To elucidate the potential impact of DAL on the process of vascular network formation, its effects in zebrafish embryos at different stages of development were assessed. To visualize vessel defects, transgenic fish expressing EGFP in endothelial cells (Tg(fli1:EGFP)^y1) were used (19-20). This model expresses EGFP in blood vessel ECs throughout normal development and during fin regeneration (21). The effects of DAL on normal vascular development in zebrafish embryos were first characterized. In control embryos, developing vessels migrated from the lateral plate mesoderm to the midline, where they coalesced into a vascular cord. These endothelial clusters subsequently established the pattern of the dorsal aorta and posterior cardinal vein. Intersomitic vessels sprouted at designated branch sites in control embryos after dorsal aorta formation.

HUVEC [2] = test: F-actin visualization and cell shape in HUVECs (phalloidin); type: cell-based, human; details: 10 μM, three hours
Protocol: (§1) For F-actin visualization, HUVECs were plated and treated with saline or DAL (10 μM) for three hours. After fixing and permeabilizing these cultured cells, the cells were subsequently stained with phalloidin. […] Existing cordlike structures, when exposed to 10 μM of DAL for 3 hours, were also disrupted. […] HUVEC monolayers were disrupted mechanically with a pipette tip and the migration of cells to “heal” the wound was monitored using microscopy.
To gain further insight into the anti-vascular effects of DAL and to assess the involvement of DAL in modulating actin assembly, normal human umbilical vein endothelial cells(HUVEC) were plated and treated with 10 μM DAL for three hours. The cells were fixed, permeabilized, and subsequently stained with phalloidin to visualize F-actin (FIG. 5A).

HUVEC [3] = test: In vitro vascular network formation on matrigel; type: cell-based, human
Protocol: as §1
To assess whether DAL affects EC functions, in vitro models of vascular network formation from HUVECs were used. After overnight cultivation in matrigel, HUVECs spontaneously assemble into cord-like structures that resemble vascular networks. […] Since DAL affects actin cytoskeleton assembly, the effect of DAL on cell motility was next assessed. A scratch wound assay was utilized to study HUVEC motility based on the healing rate of a wounded monolayer.

Rac1 mRNA = Rac1 mRNA expression by quantitative PCR; type: cell-based
recombinant purified IDO = recombinant purified IDO (Homo sapiens, UniProt P14902); details: cited (He et al., 2008); cited from earlier work
recombinant purified IDO, sequence (P14902 whole entry): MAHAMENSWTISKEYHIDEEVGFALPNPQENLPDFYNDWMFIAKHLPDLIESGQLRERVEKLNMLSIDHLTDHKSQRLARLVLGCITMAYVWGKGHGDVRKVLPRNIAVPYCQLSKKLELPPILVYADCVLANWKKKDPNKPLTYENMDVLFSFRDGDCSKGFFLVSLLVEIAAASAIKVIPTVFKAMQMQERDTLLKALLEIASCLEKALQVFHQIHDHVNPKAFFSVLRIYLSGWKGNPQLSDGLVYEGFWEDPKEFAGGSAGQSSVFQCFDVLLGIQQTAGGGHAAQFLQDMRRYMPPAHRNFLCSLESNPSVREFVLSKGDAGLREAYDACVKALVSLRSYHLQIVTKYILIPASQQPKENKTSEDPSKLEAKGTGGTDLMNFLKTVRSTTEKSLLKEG

**Q.** Which cell adhesion properties (MDA-MB-231 cells) does the source give for `CC1(C)C=CC2=C(O1)C(=O)c1ccccc1C2=O` [DAL, dehydro-alpha-lapachone] here?
**A.** lost their adhesion properties

**Q.** What about the “complexity of the arterial network” value ([1]; zebrafish embryos) of the same compound?
**A.** profound reduction

**Q.** And the “vessel branch formation / sprouting of intersomitic vessels” value ([1]; zebrafish embryos 48 hours after fertilization, DAL 5 μM)?
**A.** failed to occur; also recorded: failed to form vessel branches

**Q.** And the “cell size and shape” value (HUVEC [2])?
**A.** smaller than untreated control cells and had a rounded shape

**Q.** What about the F-actin organization (HUVEC [2]; phalloidin) of the same compound?
**A.** actin present only as small fibers and spots throughout the cells or accumulated close to the nuclei

**Q.** And the “effect on existing cordlike networks” value (HUVEC [3]; 10 μM for 3 hours)?
**A.** complete reorganization of existing networks; also recorded: disrupted

**Q.** And the “HUVEC network formation on matrigel” value (HUVEC [3]; after 24 hours / overnight cultivation)?
**A.** blocks HUVEC network formation; also recorded: disjoined networks

**Q.** And the “expression levels of Rac1 mRNA” value (Rac1 mRNA)?
**A.** did not change

**Q.** And the “mode of IDO inhibition with respect to L-tryptophan” value (recombinant purified IDO)?
**A.** non-competitive
